In patent US8680269B2, “Pesticidal compositions” (Dow AgroSciences, LLC., priority 2009, dated 2014):

Tests used:
Format in all cases: in vivo
[1] = system: corn earworm (CEW; Helicoverpa zea); assay: Insecticidal test for corn earworm, 128-well diet tray assay; conditions: 144 h, 50 μg/cm2 on artificial diet, second instar larvae, six days at 25° C.
Description: (§1) Bioassays on corn earworm (CEW; Helicoverpa zea: Lepidoptera) were conducted using a 128-well diet tray assay. Three to five second instar CEW larvae were placed in each well (3 mL) of the diet tray that had been previously filled with 1 mL of artificial diet to which 50 μg/cm^2 of the test compound (dissolved in 50 μL of 90:10 acetone-water mixture) had been applied (to each of eight wells) and then allowed to dry. Trays were covered with a clear self-adhesive cover, and held at 25° C., 14:10 light-dark for six days. Percent mortality was recorded for the larvae in each well; activity in the eight wells was then averaged.

[2] = system: beet armyworm (BAW; Spodoptera exigua); assay: Insecticidal test for beet armyworm, 128-well diet tray assay; conditions: 144 h, 50 μg/cm2 on artificial diet, second instar larvae, six days at 25° C.
Description: as §1, with “beet armyworm (BAW; Spodoptera exigua:” for “corn earworm (CEW; Helicoverpa zea:”, “BAW” for “CEW”

[3] = system: green peach aphid (Myzus persicae); assay: Insecticidal test for green peach aphid in foliar spray assay; conditions: 72 h, 200 ppm foliar spray on cabbage seedlings, graded after three days, Abbott corrected % control, read-out: Mortality GPA 200 ppm
Description: Cabbage seedlings grown in 3-inch pots, with 2-3 small (3-5 cm) true leaves, were used as test substrate. The seedlings were infested with 20-50 green peach aphids (wingless adult and nymph) one day prior to chemical application. Four pots with individual seedlings were used for each treatment. Compounds (2 mg) were dissolved in 2 mL of acetone/methanol (1:1) solvent, forming stock solutions of 1000 ppm. The stock solutions were diluted 5× with 0.025% Tween 20 in H2O to obtain the test solution at 200 ppm. A hand-held Devilbiss sprayer was used for spraying a solution to both sides of cabbage leaves until runoff. Reference plants (solvent check) were sprayed with the diluent only. Treated plants were held in a holding room for three days at approximately 25° C. and 40% relative humidity (RH) prior to grading. Evaluation was conducted by counting the number of live aphids per plant under a microscope. Insecticidal activity data, measured by using Abbott's correction formula, are presented in Table 2: Corrected % Control=100*(X−Y)/X • where X=No. of live aphids on solvent check plants • Y=No. of live aphids on treated plants

Structure (SMILES)	mortality at 50 µg/cm2 [1] [%]	mortality at 50 µg/cm2 [2] [%]	mortality at 200 ppm [3] [%]
CC(=O)Nc1cccc(NC(=S)N/N=C/c2ccc(-c3ncn(-c4ccc(OC(F)(F)F)cc4)n3)cc2)n1 [Compound 44]	< 50	< 50	< 80
FC(F)(F)Oc1ccc(-n2cnc(-c3ccc(/C=N/NC(=S)NCc4ccco4)cc3)n2)cc1 [Compound 27]	50 to 100	50 to 100	< 80
N#Cc1ccccc1NC(=S)N/N=C/c1ccc(-c2ncn(-c3ccc(OC(F)(F)F)cc3)n2)cc1 [Compound 53]	50 to 100	50 to 100	< 80
COc1cc(C)c(NC(=S)N/N=C(\C)c2ccc(-c3ncn(-c4ccc(OC(F)(F)F)cc4)n3)cc2)c(C)c1 [Compound 125]	50 to 100	50 to 100	< 80
FC(F)(F)c1ccc(-c2cn(-c3ccc(/C=N/NC(=S)Nc4c(Cl)cccc4Cl)cc3)cn2)cc1 [Compound 70]	50 to 100	50 to 100	< 80
CC(=O)c1ccc(NC(=S)N/N=C/c2ccc(-c3ncn(-c4ccc(OC(F)(F)F)cc4)n3)cc2)cc1 [Compound 33]	50 to 100	50 to 100	< 80
CNc1ccc(NC(=S)N/N=C/c2ccc(-c3ncn(-c4ccc(OC(F)(F)F)cc4)n3)cc2)cc1 [Compound 42]	50 to 100	50 to 100	< 80
Fc1c(F)c(F)c(NC(=S)N/N=C/c2ccc(-c3ncn(-c4ccc(OC(F)(F)F)cc4)n3)cc2)c(F)c1F [Compound 64]	50 to 100	50 to 100	< 80
FC(F)(F)Oc1ccc(-n2cnc(-c3ccc(/C=N/NC(=S)NCc4ccccc4)cc3)n2)cc1 [Compound 3, N-benzyl-2-(4-(1-(4-(trifluoromethoxy)phenyl)-1H-1,2,4-triazol-3-yl)benzylidene)hydrazinecarbothioamide]	< 50	50 to 100	< 80
CN(C)c1ccc(NC(=S)N/N=C/c2ccc(-c3ncn(-c4ccc(OC(F)(F)F)cc4)n3)cc2)c(C(F)(F)F)c1 [Compound 49]	50 to 100	50 to 100	< 80
O=C(N/N=C/c1ccc(-c2ncn(-c3ccc(OC(F)(F)F)cc3)n2)cc1)Nc1ccc(F)cc1 [Compound 35]	< 50	< 50	< 80
COc1cc(C)c(NC(=S)N/N=C/c2ccc(-c3ncn(-c4ccc(C(F)(F)F)cc4)n3)cc2)c(C)c1 [Compound 127]	50 to 100	50 to 100	< 80
O=C(c1ccccc1NC(=S)N/N=C/c1ccc(-c2ncn(-c3ccc(OC(F)(F)F)cc3)n2)cc1)C(F)(F)F [Compound 61]	50 to 100	50 to 100	< 80
C=CCNC(=S)N/N=C/c1ccc(-c2ncn(-c3ccc(OC(F)(F)F)cc3)n2)cc1 [Compound 12]	50 to 100	50 to 100	< 80
CN(C)c1cccc(NC(=S)N/N=C/c2ccc(-c3ncn(-c4ccc(OC(F)(F)F)cc4)n3)cc2)c1 [Compound 2, N-(3-(dimethylamino)phenyl)-2-(4-(1-(4-(trifluoromethoxy)phenyl)-1H-1,2,4-triazol-3-yl)benzylidene)hydrazinecarbothioamide]	50 to 100	50 to 100	< 80
C/C(=N\NC(=S)Nc1c(C)cccc1C)c1ccc(-c2ncn(-c3ccc(OC(F)(F)F)cc3)n2)cc1 [Compound 126]	50 to 100	50 to 100	< 80

Structure (SMILES)	mortality at 50 µg/cm2 [1] [%]	mortality at 50 µg/cm2 [2] [%]	mortality at 200 ppm [3] [%]
FC(F)(F)Oc1ccc(-n2cnc(-c3ccc(/C=N/NC(=S)Nc4ccccc4)cc3)n2)cc1 [Compound 14]	50 to 100	50 to 100	< 80
COc1ccc(NC(=S)N/N=C(\C)c2ccc(-c3ncn(-c4ccc(OC(F)(F)F)cc4)n3)cc2)c(C)c1 [Compound 109]	50 to 100	50 to 100	< 80
COc1cc(C)c(NC(=S)N/N=C/c2ccc(-c3ncn(-c4ccc(OC(F)(F)C(F)(F)F)cc4)n3)cc2)c(C)c1 [Compound 128]	50 to 100	50 to 100	< 80
CN(C)S(=O)(=O)c1ccccc1NC(=S)N/N=C/c1ccc(-c2ncn(-c3ccc(OC(F)(F)F)cc3)n2)cc1 [Compound 77]	50 to 100	50 to 100	< 80
CNC(=S)N/N=C/c1ccc(-c2ncn(-c3ccc(OC(F)(F)F)cc3)n2)cc1 [Compound 13]	50 to 100	50 to 100	< 80
Fc1cccc(Cl)c1NC(=S)N/N=C/c1ccc(-c2ncn(-c3ccc(OC(F)(F)F)cc3)n2)cc1 [Compound 63]	50 to 100	50 to 100	< 80
FC(F)(F)Oc1ccc(-n2cnc(-c3ccc(/C=N/NC(=S)Nc4ccc(Cl)cc4Cl)cc3)n2)cc1 [Compound 55]	< 50	< 50	< 80
FC(F)(F)Oc1ccc(-n2cnc(-c3ccc(/C=N/NC(=S)Nc4c(Cl)cccc4Cl)cc3)n2)cc1 [Compound 29]	50 to 100	50 to 100	< 80
COc1cccc(OC)c1NC(=S)N/N=C/c1ccc(-c2ncn(-c3ccc(OC(F)(F)F)cc3)n2)cc1 [Compound 57]	50 to 100	50 to 100	< 80
Cc1cccc(Cl)c1NC(=S)N/N=C/c1ccc(-c2ncn(-c3ccc(OC(F)(F)F)cc3)n2)cc1 [Compound 65]	50 to 100	50 to 100	< 80
CSc1ccccc1NC(=S)N/N=C/c1ccc(-c2ncn(-c3ccc(OC(F)(F)F)cc3)n2)cc1 [Compound 75]	50 to 100	50 to 100	< 80
COc1cc(C)c(NC(=S)N/N=C/c2ccc(-c3ncn(-c4ccc(OC(F)(F)F)cc4)n3)cc2)c(C)n1 [Compound 129]	50 to 100	50 to 100	< 80
COc1cccc(C)c1NC(=S)N/N=C/c1ccc(-c2ncn(-c3ccc(OC(F)(F)F)cc3)n2)cc1 [Compound 73]	50 to 100	50 to 100	< 80
Fc1cccc(F)c1NC(=S)N/N=C/c1ccc(-c2ncn(-c3ccc(OC(F)(F)F)cc3)n2)cc1 [Compound 47]	50 to 100	50 to 100	< 80
CN(C)c1ccccc1CNC(=S)N/N=C/c1ccc(-c2ncn(-c3ccc(OC(F)(F)F)cc3)n2)cc1 [Compound 39]	50 to 100	50 to 100	< 80
O=C(N/N=C/c1ccc(-c2ncn(-c3ccc(OC(F)(F)F)cc3)n2)cc1)Nc1c(Cl)cccc1Cl [Compound 120]	50 to 100	50 to 100	< 80
